The target in this assay is Glutamate receptor ionotropic, kainate (Rattus norvegicus) (UniProt P22756+Q01812+P42260+P42264+Q63273). Kind of assay: Compound was evaluated for the inhibition of kainate receptor binding at 10 uM. In kind it is protein-complex assay.

The compound `C=C(C)[C@H]1CN[C@H](C(=O)O)[C@H]1CP(=O)(O)O` registered an inhibition of 77%.

Source of the values: ChEMBL document CHEMBL1126166, “Synthesis of the -phosphonic acid analogue of kainic acid” (Bioorg Med Chem Lett, 1992).
